≈ marks a conversion by molar mass, not a printed value.
What was measured:
KB = assay: Cytotoxicity against human KB cells after 4 days; type: functional; settings: 96 h, read-out: ED50 (the source's name)
[1] = Cytotoxicity against human PLC/PRF/5 cells after 4 days; type: functional; settings: PLC-PRF-5, 96 h, read-out: ED50 (the source's name)

SMILES	EC50 (KB) [µg/mL]	EC50 [1] [µg/mL]
C/C(=C\CC[C@@H](C)[C@H]1CC[C@@]2(C)C3=C(C(=O)C[C@]12C)[C@@]1(C)CC[C@H](O)C(C)(C)[C@@H]1CC3)CO [2H-GANODERIC ALDEHYDE A]	8.27 (≈ 18.1 µM)	10.7 (≈ 23.5 µM)
CC(C)[C@@H](C)/C=C/[C@@H](C)[C@H]1CC[C@@H]2[C@]1(C)CC[C@H]1[C@]23C=C[C@]2(C[C@@H](O)CC[C@]12C)OO3 [ERGOSTEROL PEROXIDE]	9.79 (≈ 22.8 µM)	11 (≈ 25.6 µM)
C/C(C=O)=C\CC[C@@H](C)[C@H]1CC[C@@]2(C)C3=C(C(=O)C[C@]12C)[C@@]1(C)CC[C@H](O)C(C)(C)[C@@H]1CC3 [GANODERIC ALDEHYDE A]	1.25 (≈ 2.75 µM)	2.54 (≈ 5.59 µM)
